These results are taken from patent US8470829B2 (priority 2004, dated 2013).

Like-named read-outs stand apart in the source and are kept apart here.

One data set has as its target androgen receptor (Homo sapiens, UniProt P10275). Particulars: at a concentration of 10 μmol/L; cited from earlier work.
The conditions of data set [1]: prostate cancer patients treated with flutamide; cited from earlier work.
Data set [2] deals with T1, human androgen receptor (Homo sapiens, UniProt P10275).
T1 construct: expressed in transfected cells
T1 sequence (P10275 1-920): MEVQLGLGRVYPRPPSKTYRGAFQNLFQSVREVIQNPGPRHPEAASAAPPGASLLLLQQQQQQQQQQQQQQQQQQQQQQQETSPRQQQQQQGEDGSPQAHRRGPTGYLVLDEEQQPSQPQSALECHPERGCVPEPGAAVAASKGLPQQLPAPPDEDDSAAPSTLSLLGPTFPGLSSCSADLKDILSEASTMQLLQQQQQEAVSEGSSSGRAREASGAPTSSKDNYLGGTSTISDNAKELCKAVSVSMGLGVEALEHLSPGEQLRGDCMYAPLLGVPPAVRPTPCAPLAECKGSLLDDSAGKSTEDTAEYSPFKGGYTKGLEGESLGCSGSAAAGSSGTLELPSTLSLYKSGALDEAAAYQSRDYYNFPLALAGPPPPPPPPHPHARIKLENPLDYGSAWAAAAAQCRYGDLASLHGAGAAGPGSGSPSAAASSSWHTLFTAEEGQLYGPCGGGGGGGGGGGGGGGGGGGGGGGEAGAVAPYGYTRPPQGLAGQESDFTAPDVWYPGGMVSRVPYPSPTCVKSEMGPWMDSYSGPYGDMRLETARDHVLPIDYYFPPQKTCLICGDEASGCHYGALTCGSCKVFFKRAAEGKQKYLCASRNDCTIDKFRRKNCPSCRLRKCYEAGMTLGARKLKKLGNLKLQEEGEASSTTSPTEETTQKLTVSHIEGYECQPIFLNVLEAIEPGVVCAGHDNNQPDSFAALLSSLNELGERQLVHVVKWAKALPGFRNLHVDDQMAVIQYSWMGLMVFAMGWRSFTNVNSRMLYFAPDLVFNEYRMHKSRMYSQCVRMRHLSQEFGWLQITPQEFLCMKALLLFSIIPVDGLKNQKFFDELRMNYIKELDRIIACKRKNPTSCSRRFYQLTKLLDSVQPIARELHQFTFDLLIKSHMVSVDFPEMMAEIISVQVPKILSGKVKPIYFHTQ
The data set can be described thus: Measurement of agonist effect on androgen receptor (reporter gene assay, 11A11B2 cells). It counts as cell-based. Particulars: compound concentration showing a transcription activity of 5% (0.1 nmol/L DHT = 100%, assay medium alone = 0%), 48 hours.

Data set [3] deals with T1, human androgen receptor. The data set is described as follows: Investigation of antagonist effect on androgen receptor (reporter gene assay, 11A11B2 cells, with DHT). It counts as cell-based. A general note: A reporter such as luciferase makes a cellular process visible.
The next data set deals with castrated rats. Particulars: continuously administered to castrated rats for two weeks; cited from earlier work.
Setting [4] is: with 0.1 nmol/L DHT, transcription activity rate of Test Example 1 subtracted, 11A11B2 cells, 48 hours, read-out: IC50.

On to `CC(C)(O)C(=O)Nc1ccc([N+](=O)[O-])c(C(F)(F)F)c1` [Comparative Example 4, hydroxyflutamide], for which the “androgen receptor transcription activity” value at androgen receptor is “increase”. The “concentration in the blood” value in data set [1] is on record as “several”. The same molecule gave an EC5 on human androgen receptor [2] of 0.01 µM.

For orientation: IC50 means the point on the concentration scale where inhibition reaches its midpoint. The term melting point denotes the temperature of the solid-liquid transition. `CCOC(=O)Nc1cc(N2C(=O)N(c3ccc(C#N)c(C(F)(F)F)c3)C(=O)C2(C)C)ccc1Cl` [Example 13, {2-chloro-5-[3-(4-cyano-3-trifluoromethylphenyl)-5,5-dimethyl-2,4-dioxoimidazolidin-1-yl]phenyl}carbamic acid ethyl ester] displayed a melting point of 155 to 157 °C. Moreover, the IC50 on human androgen receptor [3] (setting [4]) amounted to 200 nM. This molecule showed an EC5 at human androgen receptor [2] of over 10 µM.

The molecule `CN(C)CCOC(=O)Nc1cc(N2C(=S)N(c3ccc(C#N)c(C(F)(F)F)c3)C(=O)C2(C)C)ccc1Cl` [Example 52, {2-chloro-5-[3-(4-cyano-3-trifluoromethylphenyl)-5,5-dimethyl-4-oxo-2-thioxoimidazolidin-1-yl]phenyl}-carbamic acid 2-dimethylaminoethyl ester] registered a concentration for half-maximal inhibition (IC50) against human androgen receptor [3] of 300 nM. This molecule also registered an EC5 at human androgen receptor [2] of over 10 µM.

Turning to `COc1cc(N2C(=O)C(C)(C)N(c3ccc(Cl)c(NC(=O)OCCN(C)C)c3)C2=S)ccc1C#N` [Example 54, {2-chloro-5-[3-(4-cyano-3-methoxyphenyl)-5,5-dimethyl-4-oxo-2-thioxoimidazolidin-1-yl]phenyl}-carbamic acid 2-dimethylaminoethyl ester], the IC50 at human androgen receptor [3] (setting [4]) stood at 500 nM. On human androgen receptor [2], this molecule returned an EC5 of over 10 µM.

The molecule `CC1(C)C(=O)N(c2ccc(C#N)c(C(F)(F)F)c2)C(=S)N1c1ccc(Cl)c(NC(=N)N)c1` [Example 55, N-{2-chloro-5-[3-(4-cyano-3-trifluoromethylphenyl)-5,5-dimethyl-4-oxo-2-thioxoimidazolidin-1-yl]phenyl}guanidine] showed a concentration for half-maximal inhibition (IC50) at human androgen receptor [3] of 700 nM. This molecule registered an EC5 on human androgen receptor [2] of over 10 µM.

`CC1(C)C(=O)N(c2ccc(C#N)c(C(F)(F)F)c2)C(=S)N1c1ccc(S(N)(=O)=O)cc1` [Example 56, 4-[3-(4-cyano-3-trifluoromethylphenyl)-5,5-dimethyl-4-oxo-2-thioxoimidazolidin-1-yl]benzenesulfonamide]: the IC50 at human androgen receptor [3] (setting [4]) was found to be 400 nM. This molecule also registered an EC5 at human androgen receptor [2] of over 10 µM.

`CN(C)CCOC(=O)Nc1ccc(N2C(=S)N(c3ccc(C#N)c(C(F)(F)F)c3)C(=O)C2(C)C)cn1` [Example 58, {5-[3-(4-cyano-3-trifluoromethylphenyl)-5,5-dimethyl-4-oxo-2-thioxoimidazolidin-1-yl]pyridin-2-yl}carbamic acid 2-dimethylaminoethyl ester] had an IC50 against human androgen receptor [3] of 500 nM. In addition, the EC5 at human androgen receptor [2] is over 10 µM.

In the case of `CC1(C)C(=O)N(c2ccc(C#N)c(C(F)(F)F)c2)C(=S)N1c1ccc(NC(=O)OCCO)nc1` [Example 60, {5-[3-(4-cyano-3-trifluoromethylphenyl)-5,5-dimethyl-4-oxo-2-thioxoimidazolidin-1-yl]pyridin-2-yl}carbamic acid 2-hydroxyethyl ester], the IC50 on human androgen receptor [3] (setting [4]) is 300 nM. The EC5 on human androgen receptor [2] is over 10 µM.

Turning to `CN(C)CCNC(=O)Nc1nc2cc(N3C(=S)N(c4ccc(C#N)c(Cl)c4)C(=O)C3(C)C)ccc2s1` [Example 61, 1-{5-[3-(3-chloro-4-cyanophenyl)-5,5-dimethyl-4-oxo-2-thioxoimidazolidin-1-yl]benzothiazol-2-yl}-3-(2-dimethylaminoethyl)urea], the IC50 against human androgen receptor [3] was 300 nM. In addition, the EC5 at human androgen receptor [2] is over 10 µM.

For the molecule `CC1(C)C(=O)N(c2ccc(C#N)c(Cl)c2)C(=S)N1c1ccc2sc(NC(=O)NCCO)nc2c1` [Example 63, 1-{5-[3-(3-chloro-4-cyanophenyl)-5,5-dimethyl-4-oxo-2-thioxoimidazolidin-1-yl]benzothiazol-2-yl}-3-(2-hydroxyethyl)urea], at human androgen receptor [3], half-maximal inhibition (IC50) was put at 300 nM. The molecule also gave an EC5 at human androgen receptor [2] of over 10 µM.

Regarding `CN(C)CCOC(=O)Nc1nc2cc(N3C(=S)N(c4ccc(C#N)c(Cl)c4)C(=O)C3(C)C)ccc2s1` [Example 64, {5-[3-(3-chloro-4-cyanophenyl)-5,5-dimethyl-4-oxo-2-thioxoimidazolidin-1-yl]benzothiazol-2-yl}carbamic acid 2-dimethylaminoethyl ester], on human androgen receptor [3] (setting [4]), the IC50 came out at 200 nM. The EC5 on human androgen receptor [2] was over 10 µM.

With `CC1(C)C(=O)N(c2ccc(C#N)c(Cl)c2)C(=S)N1c1ccc2sc(NC(=O)OCC(O)CO)nc2c1` (stereo not drawn) [Example 65, {5-[3-(3-chloro-4-cyanophenyl)-5,5-dimethyl-4-oxo-2-thioxoimidazolidin-1-yl]benzothiazol-2-yl}carbamic acid 2,3-dihydroxypropyl ester], the concentration for half-maximal inhibition (IC50) at human androgen receptor [3] (setting [4]) is 200 nM. This molecule yielded an EC5 at human androgen receptor [2] of over 10 µM.

As for `CC1(C)C(=O)N(c2ccc(C#N)c(Cl)c2)C(=S)N1c1ccc2sc(NC(=O)OCCO)nc2c1` [Example 66, {5-[3-(3-chloro-4-cyanophenyl)-5,5-dimethyl-4-oxo-2-thioxoimidazolidin-1-yl]benzothiazol-2-yl}carbamic acid 2-hydroxyethyl ester], the IC50 at human androgen receptor [3] came to 100 nM. On human androgen receptor [2], this molecule came in with an EC5 of 6 µM.

Turning to `CC1(C)C(=O)N(c2ccc(C#N)c(Cl)c2)C(=S)N1c1cccc(S(N)(=O)=O)c1` [Example 68, 3-[3-(3-chloro-4-cyanophenyl)-5,5-dimethyl-4-oxo-2-thioxoimidazolidin-1-yl]benzenesulfonamide], the IC50 at human androgen receptor [3] (setting [4]) was 400 nM. The molecule further displayed an EC5 at human androgen receptor [2] of over 10 µM.

`CN(C)CCOC(=O)Nc1ccc(N2C(=S)N(c3ccc(C#N)c(Cl)c3)C(=O)C2(C)C)cn1` [Example 69, {5-[3-(3-chloro-4-cyanophenyl)-5,5-dimethyl-4-oxo-2-thioxoimidazolidin-1-yl]pyridin-2-yl}-carbamic acid 2-dimethylaminoethyl ester]: at human androgen receptor [3], the IC50 came to 500 nM. For the same molecule, the EC5 at human androgen receptor [2] is over 10 µM.

At human androgen receptor [3], `CC1(C)C(=O)N(c2ccc(C#N)c(C(F)(F)F)c2)C(=S)N1c1ccc(NC(=O)OCC(O)CO)nc1` (stereo not drawn) [Example 70, {5-[3-(4-cyano-3-trifluoromethylphenyl)-5,5-dimethyl-4-oxo-2-thioxoimidazolidin-1-yl]pyridin-2-yl}-carbamic acid 2,3-dihydroxypropyl ester] gave an IC50 of 500 nM. The EC5 on human androgen receptor [2] was over 10 µM.

For `CC(=O)O[C@]1(C(C)=O)CC[C@H]2[C@@H]3C=C(Cl)C4=CC(=O)CC[C@]4(C)[C@H]3CC[C@@]21C` [chlormadinone acetate], the “weight of the prostate gland” value with castrated rats is reported as “increase”.

For `CC(=O)O[C@]1(C(C)=O)CC[C@H]2[C@@H]3C=C(Cl)C4=CC(=O)[C@@H]5C[C@@H]5[C@]4(C)[C@H]3CC[C@@]21C` [cyproterone acetate], in the data set with castrated rats, the “weight of the prostate gland” value is listed as “increase”.
